25 compounds from US20110230485A1, “6-PHENYL-PYRIMIDIN-4-YL-(PHENYLAMINE OR PHENOXY) DERIVATIVES USEFUL AS MODULATORS OF NICOTINIC ACETYLCHOLINE RECEPTORS” (NEUROSEARCH A/S, priority 2008, published 2011) can be followed below.

pEC50: −log10 of the molar value.

In series [1] the target is T1, wild-type nAChR α7 receptors (Homo sapiens, UniProt P36544).
T1 construct: expressed in transfected cells; host or cells: Xenopus laevis oocytes
The series can be described thus: Positive modulation of nAChR α7 receptors expressed in Xenopus laevis oocytes, two-electrode voltage clamp. Particulars: oocytes clamped at −60 mV; for Emax: read-out: Imax; for pEC50: positive modulation of current induced by 100 μM acetylcholine, test compound 0.01-31.6 μM applied 30 s before and during acetylcholine. It is filed as cell-based. As to the method: In this example the positive modulation of wild-type nAChR α7 receptors by the compounds of the invention was determined using nAChR α7 receptors heterologously expressed in Xenopus laevis oocytes.
The electrical current through the nAChR α7 channel was measured using conventional two-electrode voltage clamp and nAChR α7 currents were activated by applying pulses of agonist-containing solution onto the nAChR α7 expressing oocyte.
In brief, the oocytes were placed in a recording chambers and continuously super-fused with an Oocyte Ringer (OR) solution containing 90 mM NaCl, 2.5 mM KCl, 2.5 mM CaCl2, 1 mM MgCl2 and 5 mM HEPES (pH adjusted to 7.4). The oocytes were clamped at −60 mV and currents were induced by applying 20 s pulses of 100 μM acetylcholine dissolved in OR. The intervals between the acetylcholine applications were 5 minutes, during which the oocytes were washed with OR. The first three applications were control applications to insure a constant response level of 100 μM acetylcholine. For the subsequent test applications, increasing concentrations (0.01-31.6 μM) of the test compound were applied 30 s before and during the acetylcholine (100 μM) application, which caused a robust increase in the acetylcholine-induced current amplitude.
The positive modulation in the presence of Compound was calculated as (test-control)/control×100% and the concentration response curve for this positive modulation was fitted to the sigmoidal logistic equation:
I=Imax/(1+(EC50/[compound])^n),
where Imax represents the maximal modulation of the control response, EC50 is the concentration causing a half maximal response, and n is the slope coefficient.
(In two-electrode clamp one electrode senses voltage and the other passes current.)

The mark [2] stands for this setting: maximal modulation of the control response to 100 μM acetylcholine, (test-control)/control×100%.

T1 sequence (P36544 23-502): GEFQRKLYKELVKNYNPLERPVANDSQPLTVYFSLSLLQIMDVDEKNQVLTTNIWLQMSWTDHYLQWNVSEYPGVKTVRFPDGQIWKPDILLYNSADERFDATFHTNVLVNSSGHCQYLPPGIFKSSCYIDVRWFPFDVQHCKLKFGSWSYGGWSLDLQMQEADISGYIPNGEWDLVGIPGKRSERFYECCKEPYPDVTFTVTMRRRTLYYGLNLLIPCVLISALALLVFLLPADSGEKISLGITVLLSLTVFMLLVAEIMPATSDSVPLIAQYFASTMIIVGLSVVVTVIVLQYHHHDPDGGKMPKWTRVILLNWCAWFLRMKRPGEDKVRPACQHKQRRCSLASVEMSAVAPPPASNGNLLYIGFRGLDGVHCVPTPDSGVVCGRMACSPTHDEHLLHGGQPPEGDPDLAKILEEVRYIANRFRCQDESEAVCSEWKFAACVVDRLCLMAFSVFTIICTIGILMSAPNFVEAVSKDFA

As usually defined, the melting point is the temperature, or range, at which the solid turns liquid. Regarding `COc1ccc(Nc2ncnc(-c3ccc(C(F)(F)F)cc3F)c2[N+](=O)[O-])cc1` [Compound 1.1, [6-(2-Fluoro-4-trifluoromethyl-phenyl)-5-nitro-pyrimidin-4-yl]-(4-methoxy-phenyl)-amine], the melting point lay within 155.6 to 155.8 °C. Also, the Emax in series [1] (setting [2]) was found to be 2%. Broadly, the pEC50 is −log10 of the EC50, conventionally taken in molar units. A lower pEC50 goes with a high EC50. Compound `O=[N+]([O-])c1c(Nc2ccc(O)cc2)ncnc1-c1ccc(C(F)(F)F)cc1F` [Compound 1.2, 4-[6-(2-Fluoro-4-trifluoromethyl-phenyl)-5-nitro-pyrimidin-4-ylamino]-phenol] displayed a melting point of 169 to 171.5 °C. Also, in series [1] (setting [2]), the Emax amounted to 391%. This compound also gave a pEC50 in series [1] of 4.64. `COc1ccc(Nc2ncnc(-c3ccc(C(F)(F)F)cc3F)c2N)cc1` [Compound 1.3, 6-(2-Fluoro-4-trifluoromethyl-phenyl)-N*4*-(4-methoxy-Phenyl)-pyrimidine-4,5-diamine]: the melting point was in the range of 212.1 to 213.2 °C. Also, the pEC50 in series [1] is 5.64. With `Nc1c(Nc2ccc(O)cc2)ncnc1-c1ccc(C(F)(F)F)cc1F` [Compound 1.4, 4-[5-Amino-6-(2-fluoro-4-trifluoromethyl-phenyl)-pyrimidin-4-ylamino]-phenol], the melting point was in the range of 194.2 to 195.7 °C. On to `COc1ccc(Nc2ncnc(-c3ccc(C(F)(F)F)cc3F)c2[N+](=O)[O-])cn1` [Compound 1.5, [6-(2-Fluoro-4-trifluoromethyl-phenyl)-5-nitro-pyrimidin-4-yl]-(6-methoxy-pyridin-3-yl)-amine], for which the Emax in series [1] (setting [2]) stood at 137%. For the same compound, the pEC50 in series [1] was 5.18. `COc1ccc(Nc2ncnc(-c3ccc(C(F)(F)F)cc3F)c2N)cn1` [Compound 1.6, 6-(2-Fluoro-4-trifluoromethyl-phenyl)-N*4*-(6-methoxy-rwridin-3-yl)-pyrimidine-4,5-diamine] registered an Imax in series [1] (setting [2]) of 129%.

Consider `Nc1c(Nc2ccc(S(N)(=O)=O)cc2)ncnc1-c1ccc(C(F)(F)F)cc1F` [Compound 1.8, 4-[5-Amino-6-(2-fluoro-4-trifluoromethyl-phenyl)-pyrimidin-4-ylamino]-benzenesulfonamide], for which the Emax in series [1] (setting [2]) came out at 237%. In series [1], this compound had a pEC50 of 5.17. The matching figures for `O=[N+]([O-])c1c(Nc2ccc3[nH]ccc3c2)ncnc1-c1ccc(C(F)(F)F)cc1F` [Compound 1.9, [6-(2-Fluoro-4-trifluoromethyl-phenyl)-5-nitro-pyrimidin-4-yl]-(1H-indol-5-yl)-amine]: 527% and 5.16. For `Nc1c(Nc2ccc3[nH]ccc3c2)ncnc1-c1ccc(C(F)(F)F)cc1F` [Compound 1.10, 6-(2-Fluoro-4-trifluoromethyl-phenyl)-N*4*-(1H-indol-5-yl)-pyrimidine-4,5-diamine] the same measures were 631% and 6.62. Turning to `Nc1c(Nc2ccc(O)nc2)ncnc1-c1ccc(C(F)(F)F)cc1F` [Compound 1.11, 5-[5-Amino-6-(2-fluoro-4-trifluoromethyl-phenyl)-pyrimidin-4-ylamino]-pyridin-2-ol], in series [1] (setting [2]), the Emax came out at 22%. For `Nc1c(Nc2ccc3[nH]ncc3c2)ncnc1-c1ccc(C(F)(F)F)cc1F` [Compound 1.12, 6-(2-Fluoro-4-trifluoromethyl-phenyl)-N*4*-(1H-indazol-5-yl)-pyrimidine-4,5-diamine], the Emax in series [1] (setting [2]) worked out at 184%. The compound further gave a pEC50 in series [1] of 5.00. Turning to `Nc1c(Nc2ccc3c(c2)OCO3)ncnc1-c1ccc(C(F)(F)F)cc1F` [Compound 1.13, N*4*-Benzo[1,3]dioxol-5-yl-6-(2-fluoro-4-trifluoromethyl-phenyl)-pyrimidine-4,5-diamine], the Emax in series [1] (setting [2]) was 848%. In series [1], this compound gave a pEC50 of 4.27. As for `Nc1c(Nc2ccc(OCC3CC3)cc2)ncnc1-c1ccc(C(F)(F)F)cc1F` [Compound 1.14, N*4*-(4-Cyclopropylmethoxy-phenyl)-6-(2-fluoro-4-trifluoromethyl-phenyl)-pyrimidine-4,5-diamine], the Emax in series [1] (setting [2]) was 3%.

On to `COc1ccc(Nc2nc(C)nc(-c3ccc(C(F)(F)F)cc3F)c2N)cc1` [Compound 1.16, 6-(2-Fluoro-4-trifluoromethyl-phenyl)-N*4*-(4-methoxy-phenyl)-2-methyl-pyrimidine-4,5-diamine], for which the Emax in series [1] (setting [2]) stood at 495%. The same compound had a negative-log EC50 (pEC50) in series [1] of 5.31. As for `Cc1ccc(Nc2nc(C)nc(-c3ccc(C(F)(F)F)cc3F)c2N)cc1` [Compound 1.27, 6-(2-Fluoro-4-trifluoromethyl-phenyl)-2-methyl-N*4*-p-tolyl-pyrimidine-4,5-diamine], the Emax in series [1] (setting [2]) turned out to be 503%. The negative-log EC50 (pEC50) in series [1] was 5.47. For `Cc1nc(Nc2ccc3c(c2)OCCO3)c(N)c(-c2ccc(C(F)(F)F)cc2F)n1` [Compound 1.29, N*4*-(2,3-Dihydro-benzo[1,4 dioxin-6-yl)-6-(2-fluoro-4-trifluoromethyl-phenyl)-2-methyl-pyrimidine-4,5-diamine] the same measures were 297% and 5.03. For `COc1cccc(Nc2nc(C)nc(-c3ccc(C(F)(F)F)cc3F)c2N)c1` [Compound 1.31, 6-(2-Fluoro-4-trifluoromethyl-phenyl)-N*4*-(3-methoxy-phenyl)-2-methyl-pyrimidine-4,5-diamine], in series [1] (setting [2]), the Emax came to 193%. The compound also gave a pEC50 in series [1] of 5.24. As for `CSc1cccc(Nc2nc(C)nc(-c3ccc(C(F)(F)F)cc3F)c2N)c1` [Compound 1.32, 6-(2-Fluoro-4-trifluoromethyl-phenyl)-2-methyl-N*4*-(3-methylsulfanyl-phenyl)-pyrimidine-4,5-diamine], the Emax in series [1] (setting [2]) was found to be 245%. Besides, the negative logarithm of the EC50 (pEC50) in series [1] is 5.01. The matching figures for `COc1ccc(Nc2nc(C)nc(-c3ccc(C(F)(F)F)cc3F)c2N)c(OC)c1` [Compound 1.33, N*4*-(2,4-Dimethoxy-phenyl)-6-(2-fluoro-4-trifluoromethyl-phenyl)-2-methyl-pyrimidine-4,5-diamine]: 11% and 5.96. For `Cc1nc(Nc2ccc3ccccc3c2)c(N)c(-c2ccc(C(F)(F)F)cc2F)n1` [Compound 1.34, 6-(2-Fluoro-4-trifluoromethyl-phenyl)-2-methyl-N*4*-naphthalen-2-v1-pyrimidine-4,5-diamine] the same measures were 148% and 5.37. Regarding `COc1ccc(Oc2ncnc(-c3ccc(C(F)(F)F)cc3F)c2[N+](=O)[O-])cc1` [Compound 2.1, 4-(2-Fluoro-4-trifluoromethyl-phenyl)-6-(4-methoxy-phenoxy)-5-nitro-pyrimidine], the Emax in series [1] (setting [2]) came out at 19%. In the case of `COc1ccc(Oc2ncnc(-c3ccc(C(F)(F)F)cc3F)c2N)cc1` [Compound 2.2, 4-(2-Fluoro-4-trifluoromethyl-phenyl)-6-(4-methoxy-phenoxy)-pyrimidin-5-ylamine], the Emax in series [1] (setting [2]) is 119%. Also, in series [1], the pEC50 is 5.18.

For the compound `Nc1c(Oc2ccc(O)cc2)ncnc1-c1ccc(C(F)(F)F)cc1F` [Compound 2.3], the Emax in series [1] (setting [2]) turned out to be 104%. For the same compound, the pEC50 in series [1] is 4.82.

Take `Cc1nc(Oc2ccc3c(c2)OCO3)c(N)c(-c2ccc(C(F)(F)F)cc2F)n1` [Compound 2.9]: in series [1] (setting [2]), the Emax was 35%. The pEC50 in series [1] was 6.13. `COc1ccc(Oc2nc(C)nc(-c3ccc(C(F)(F)F)cc3F)c2N)cc1` [Compound 2.13, 4-(2-Fluoro-4-trifluoromethyl-phenyl)-6-(4-methoxy-phenoxy)-2-methyl-pyrimidin-5-ylamine]: the Emax in series [1] (setting [2]) was 42%. In series [1], this compound had a pEC50 of 5.22.
